Reference: the supplement of paper PMC8149375
“And” between values parts separate entries of the source, which are not always exact repeats. Equal values may be shown once.

What was measured:
Settings in all cases: treatment: drug + dasatinib (fixed dose, not stated); 5 days
769-P [1] = test: GI50 of drug in presence of dasatinib; higher = less potent
Description: (§1)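 Primary HTS combination arm: 8 RCC cell lines treated with 8 doses (up to 10 uM) of each library drug plus a fixed dose of dasatinib (dose not stated) for 5 days; viability read by CellTiter-Glo and normalised to DMSO. GI50 was fitted with XLfit, AUC is the area under the dose-response curve, and minimum viability is the lowest fraction of DMSO viability across doses.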

UO-31 [2] = test: as above
Description: as §1

TK-10 [3] = test: as above
Description: as §1

786-O [4] = test: as above
Description: as §1

SN12C [5] = test: as above
Description: as §1

A498 [6] = test: as above
Description: as §1

ACHN [7] = test: as above
Description: as §1

769-P [8] = test: AUC of dose-response viability curve, drug + dasatinib, normalised to DMSO (arbitrary (AUC of normalised viability)); higher = less growth inhibition
Description: as §1

UO-31 [9] = test: as above
Description: as §1

TK-10 [10] = test: as above
Description: as §1

786-O [11] = test: as above
Description: as §1

SN12C [12] = test: as above
Description: as §1

A498 [13] = test: as above
Description: as §1

ACHN [14] = test: as above
Description: as §1

CAKI-1 [15] = test: as above
Description: as §1

769-P [16] = test: minimum viability across doses, drug + dasatinib, relative to DMSO (fraction); higher = less growth inhibition
Description: as §1

UO-31 [17] = test: as above
Description: as §1

TK-10 [18] = test: as above
Description: as §1

786-O [19] = test: as above
Description: as §1

SN12C [20] = test: as above
Description: as §1

A498 [21] = test: as above
Description: as §1

ACHN [22] = test: as above
Description: as §1

CAKI-1 [23] = test: as above
Description: as §1

CAKI-1 [24] = test: GI50 of drug in presence of dasatinib; higher = less potent
Description: as §1

SMILES | GI50 of drug (769-P [1]) | GI50 of drug (UO-31 [2]) | GI50 of drug (TK-10 [3]) | GI50 of drug (786-O [4]) | GI50 of drug (SN12C [5]) | GI50 of drug (A498 [6]) | GI50 of drug (ACHN [7]) | AUC of dose-response viability curve (769-P [8]) | AUC of dose-response viability curve (UO-31 [9]) | AUC of dose-response viability curve (TK-10 [10]) | AUC of dose-response viability curve (786-O [11]) | AUC of dose-response viability curve (SN12C [12]) | AUC of dose-response viability curve (A498 [13]) | AUC of dose-response viability curve (ACHN [14]) | AUC of dose-response viability curve (CAKI-1 [15]) | minimum viability across doses (769-P [16]) | minimum viability across doses (UO-31 [17]) | minimum viability across doses (TK-10 [18]) | minimum viability across doses (786-O [19]) | minimum viability across doses (SN12C [20]) | minimum viability across doses (A498 [21]) | minimum viability across doses (ACHN [22]) | minimum viability across doses (CAKI-1 [23]) | GI50 of drug (CAKI-1 [24])
CCOc1ccn(-c2ccc(F)cc2)c(=O)c1C(=O)Nc1ccc(Oc2ccnc(N)c2Cl)c(F)c1 + Cc1nc(Nc2ncc(C(=O)Nc3c(C)cccc3Cl)s2)cc(N2CCN(CCO)CC2)n1 [dasatinib] | > 10000 nM | > 10000 nM | > 10000 nM | 1570 nM | > 10000 nM | > 10000 nM | 642 nM | 2.36 | 3.54 | 2.43 | 1.85 | 2.27 | 2.83 | 1.66 | 1.92 | 0.495 | 0.695 | 0.634 | 0.35 | 0.528 | 0.61 | 0.247 | 0.118 | 
CC(=O)Nc1cccc(-n2c(=O)n(C3CC3)c(=O)c3c(Nc4ccc(I)cc4F)n(C)c(=O)c(C)c32)c1 + Cc1nc(Nc2ncc(C(=O)Nc3c(C)cccc3Cl)s2)cc(N2CCN(CCO)CC2)n1 [dasatinib] | 217 nM | 159 nM | 78.7 nM | 21.7 nM | 86.2 nM |  | 8.4 nM | 1.68 | 1.88 | 1.58 | 1.48 | 1.58 | 1.96 | 1.2 | 1.29 | 0.196 | 0.0585 | 0.235 | 0.321 | 0.243 | 0.306 | 0.216 | 0.0991 | 54.2 nM
Cc1cnc(Nc2ccc(N3CCN(C)CC3)cc2)nc1Nc1cccc(S(=O)(=O)NC(C)(C)C)c1 + Cc1nc(Nc2ncc(C(=O)Nc3c(C)cccc3Cl)s2)cc(N2CCN(CCO)CC2)n1 [dasatinib] | 878 nM and 719 nM | 903 nM and 821 nM | 336 nM and 309 nM | 497 nM and 187 nM | 746 nM and 690 nM | 4270 nM and 3210 nM | 79.9 nM and 106 nM | 1.99 and 2 | 3.14 and 3 | 1.73 and 1.65 | 1.88 and 1.72 | 1.85 and 1.91 | 3.36 and 2.9 | 1.25 and 1.24 | 1.56 and 1.46 | 0.0284 and 0.0197 | 0.0085 and 0.0129 | 0.00138 and 0.00232 | 0.0113 and 0.0115 |  | 0.176 and 0.14 | 0.00194 and 0.00321 | 0.00497 and 0.00392 | 271 nM and 152 nM
O=C(NC[C@H](O)CO)c1ccncc1Nc1ccc(I)cc1F + Cc1nc(Nc2ncc(C(=O)Nc3c(C)cccc3Cl)s2)cc(N2CCN(CCO)CC2)n1 [dasatinib] | 455 nM | 563 nM | 296 nM | 89.8 nM | 307 nM |  | 10.5 nM | 1.81 | 2.33 | 1.9 | 1.87 | 1.9 | 2.28 | 1.28 | 1.52 | 0.212 | 0.0714 | 0.203 | 0.394 | 0.227 | 0.31 | 0.216 | 0.0863 | 139 nM
Cc1ccc(C(=O)Nc2ccc(CN3CCN(C)CC3)c(C(F)(F)F)c2)cc1C#Cc1cnc2cccnn12 + Cc1nc(Nc2ncc(C(=O)Nc3c(C)cccc3Cl)s2)cc(N2CCN(CCO)CC2)n1 [dasatinib] | 624 nM | 311 nM | 390 nM | 402 nM | 230 nM | 935 nM | 68.8 nM |  |  |  |  |  |  |  |  |  |  |  |  |  |  |  |  | 127 nM
C[C@@H](Oc1cc(-n2cnc3ccc(CN4CCN(C)CC4)cc32)sc1C(N)=O)c1ccccc1C(F)(F)F + Cc1nc(Nc2ncc(C(=O)Nc3c(C)cccc3Cl)s2)cc(N2CCN(CCO)CC2)n1 [dasatinib] | 31 nM | 77.4 nM | 265 nM | 10.7 nM | 89.1 nM |  | 21.2 nM | 1.14 | 1.32 | 2.01 | 0.653 | 1.62 | 1.97 | 1.22 | 1.33 | 0.0347 | 0.00496 | 0.171 | 0.00468 | 0.155 | 0.384 | 0.0897 | 0.0912 | 38.1 nM
Cn1cnc2c(F)c(Nc3ccc(Br)cc3Cl)c(C(=O)NOCCO)cc21 [AZD6244 (Selumetinib)] + Cc1nc(Nc2ncc(C(=O)Nc3c(C)cccc3Cl)s2)cc(N2CCN(CCO)CC2)n1 [dasatinib] | 1200 nM |  | 3540 nM | 1660 nM | 1070 nM |  | 83.2 nM | 2.1 | 2.32 | 2.38 | 2.26 | 1.84 | 2.11 | 1.64 | 1.77 | 0.294 | 0.143 | 0.477 | 0.507 | 0.0911 | 0.301 | 0.343 | 0.129 | 646 nM
Cc1cc(C(=O)NOCCO)c(Nc2ccc(I)cc2F)n(C)c1=O [AZD8330] + Cc1nc(Nc2ncc(C(=O)Nc3c(C)cccc3Cl)s2)cc(N2CCN(CCO)CC2)n1 [dasatinib] | 69.4 nM |  | 108 nM | 54.5 nM | 60.1 nM |  | < 3 nM | 1.49 | 1.9 | 1.64 | 1.67 | 1.5 | 1.77 | 0.912 | 1.21 | 0.219 | 0.0965 | 0.262 | 0.323 | 0.212 | 0.318 | 0.18 | 0.102 | 56.5 nM
